Results on five molecules are retold here after US12187773B2, “Modified GIP peptide analogues” (Antag Therapeutics ApS, priority 2018, dated 2025).

Holding throughout (format): cell-based
Experiment [1] deals with T1, human GIP receptor (Homo sapiens, UniProt P48546).
T1 sequence (P48546 22-466): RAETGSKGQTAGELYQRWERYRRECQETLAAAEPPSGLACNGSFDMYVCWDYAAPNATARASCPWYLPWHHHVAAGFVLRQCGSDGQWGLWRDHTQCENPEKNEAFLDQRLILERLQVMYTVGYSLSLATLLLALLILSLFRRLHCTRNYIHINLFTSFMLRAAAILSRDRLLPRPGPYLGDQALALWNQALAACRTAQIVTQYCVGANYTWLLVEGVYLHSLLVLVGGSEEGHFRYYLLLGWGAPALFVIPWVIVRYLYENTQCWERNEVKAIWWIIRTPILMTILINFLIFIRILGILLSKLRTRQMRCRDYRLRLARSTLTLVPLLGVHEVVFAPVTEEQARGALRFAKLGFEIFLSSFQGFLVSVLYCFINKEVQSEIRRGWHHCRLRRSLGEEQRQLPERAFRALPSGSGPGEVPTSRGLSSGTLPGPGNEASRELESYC
As to the kind of experiment: cAMP antagonism (CisBio cAMP Dynamic 2 HTRF assay). Also noted: pCMV-Script vector. As to conditions: Table 1C, CisBio, HEK-293 cells. The protocol:
The in vitro functional activity of compounds towards human GIP receptor can also be determined in HEK-293 cells transiently expressing the receptor. On the day of the assay, cells were resuspended in HBSS buffer (Gibco, 14025-50) supplemented with 20 mM HEPES (Gibco, 15630-106), 0,1% Pluronic F-68 (Gibco, 24040-032) and 0,1% casein (Sigma, C4765), and plated in 384-well plates at a density of 5000 cells/well. The GIP peptide analogues of the present disclosure were diluted in HBSS buffer supplemented with 20 mM HEPES, 0,1% pluronic, 0,1% casein and 500 uM IBMX. […] The resulting decrease in intracellular cAMP was quantitatively determined using the CisBio cAMP Dynamic 2 HTRF Assay Kit. The assay is based on a competition between native cAMP produced by cells and cAMP labeled with the dye d2 for binding to a cryptate labeled antibody. The specific signal (i.e. energy transfer signal) is inversely proportional to the concentration of cAMP in the sample.
The cAMP-d2 conjugate and the antibody anti-cAMP-Cryptate, both diluted in lysis buffer provided in the kit, were added to the cells according to the manufacturer's protocol. The resulting competitive assay was incubated for 60 minutes at room temperature, and the signal was detected by using a PerkinElmer Envision® instrument with excitation at 320 nm and emission at 665 nm and 620 nm. The HTRF ratio (emission at 665 nm/620 nm*10,000) is inversely proportional to the amount of cAMP present and is converted to nM cAMP per well using a cAMP standard curve. The dose-response curves were fitted using the non-linear regression analysis (four-logistic parameter equation) in GraphPad Prism, whereby pIC50 values were estimated.
Background: Time-resolved FRET reads energy transfer from a long-lived donor to a nearby acceptor.

In experiment [2] the target is T1, human GIP receptor. Nature of the experiment: cAMP accumulation, agonism (DiscoveRx HitHunter cAMP XS assay). Also noted: host or cells: COS-7 (transient, calcium phosphate; pCMV-Script vector). The protocol: Transient transfected COS-7 cells expressing the human GIP receptor were seeded in white 96-well plates with a density of 3.5*10^4/well. The day after, the cells were washed twice with Hepes buffered saline (HBS) buffer and incubated with HBS and 1 mM 3-isobutyl-1-methylxanthine (IBMX) for 30 min at 37° C. To test for agonistic properties, ligands were added and incubated for 30 min at 37° C. In order to test for antagonistic properties, the cells were preincubated with the antagonists for 10 min prior to the addition of the agonist and subsequent incubated for 20 additional min. The HitHunter™ cAMP XS assay (DiscoveRx) was carried out according to the manufacturer's instructions.
In order to develop a GIP receptor antagonist with improved antagonistic properties, individual amino acid substitutions were conducted on GIP(3-30)NH2 and in particular at positions: 16, 18, 30 or 3, 16, 18, 30. The obtained peptides were lipidated at position 18 directly or via a linker. Both the agonistic and antagonistic profiles of the compounds were tested in cAMP accumulation experiments done in transiently transfected COS-7 cells expressing the human GIP receptor. To investigate if these mutated analogues still retained their antagonistic properties, their ability to inhibit a GIP-mediated cAMP response corresponding to 50-80% of maximum activation was examined.
A general note: Cyclic AMP is a second messenger, typically raised through Gs and lowered through Gi signalling.

Experiment [3] has as its target T1, human GIP receptor. As to the kind of experiment: cAMP agonism (CisBio cAMP Dynamic 2 HTRF assay). The protocol:
To test for agonistic properties at the GIP receptor, compounds were diluted and added to cells as described above and incubated for 30 min at 37° C. The resulting increase in intracellular cAMP was determined using the CisBio cAMP Dynamic 2 HTRF Assay Kit as described above.

The mark [4] stands for this setting: COS-7, read-out: cAMP agonism, Emax.
Setting [5] is: HEK293, read-out: cAMP agonism, % Efficacy, Table 1C, HEK-293 cells.

As a reminder, the IC50 is the concentration at which inhibition is half-maximal. Read a low IC50 as greater potency in that assay.

Where a SMILES comes first, the peptide text is derived from it. The star is where a group is joined. C16 diacid = O=C(O)CCCCCCCCCCCCCCC(=O)*

Take `CC[C@H](C)[C@H](NC(=O)[C@H](CO)NC(=O)[C@H](Cc1ccc(O)cc1)NC(=O)[C@H](CC(=O)O)NC(=O)[C@H](CO)NC(=O)[C@@H](NC(=O)[C@H](Cc1ccccc1)NC(=O)[C@@H](NC(=O)CNC(=O)[C@@H](N)CO)[C@@H](C)O)[C@@H](C)CC)C(=O)N[C@@H](C)C(=O)N[C@@H](CCSC)C(=O)N[C@@H](CC(=O)O)C(=O)N[C@@H](CCCNC(=N)N)C(=O)N[C@H](C(=O)N[C@@H](CCCCNC(=O)CC[C@H](NC(=O)CCCCCCCCCCCCCCC(=O)O)C(=O)O)C(=O)N[C@@H](CCC(N)=O)C(=O)N[C@@H](CCC(N)=O)C(=O)N[C@@H](CC(=O)O)C(=O)N[C@@H](Cc1ccccc1)C(=O)N[C@H](C(=O)N[C@@H](CC(N)=O)C(=O)N[C@@H](Cc1c[nH]c2ccccc12)C(=O)N[C@@H](CC(C)C)C(=O)N[C@@H](CC(C)C)C(=O)N[C@@H](C)C(=O)N[C@@H](CCC(N)=O)C(=O)N[C@@H](CCCNC(=N)N)C(=O)O)C(C)C)[C@@H](C)CC` [AT265] (HELM PEPTIDE1{S.G.T.F.I.S.D.Y.S.I.A.M.D.R.I.K.Q.Q.D.F.V.N.W.L.L.A.Q.R}|PEPTIDE2{[O=C(O)CCCCCCCCCCCCCCC(=O)[*:2]].[gGlu]}$PEPTIDE1,PEPTIDE2,16:R3-2:R2$$$V2.0; N-terminus assumed): the “cAMP antagonism, % inhib” value at human GIP receptor [1] stood at 73%. For the same molecule, at human GIP receptor [1] (cAMP antagonism, nM (IC50), agonist GIP1-42 at EC50), the IC50 worked out at 58.4 nM. For the same molecule, the Emax was 10% on human GIP receptor [2] (setting [4]) and 8% at human GIP receptor [3] (setting [5]).

For `CC[C@H](C)[C@H](NC(=O)[C@H](CO)NC(=O)[C@H](Cc1ccc(O)cc1)NC(=O)[C@H](CC(=O)O)NC(=O)[C@H](CO)NC(=O)[C@@H](NC(=O)[C@H](Cc1ccccc1)NC(=O)[C@@H](NC(=O)CNC(=O)CN)[C@@H](C)O)[C@@H](C)CC)C(=O)N[C@@H](C)C(=O)N[C@@H](CCSC)C(=O)N[C@@H](CC(=O)O)C(=O)N[C@@H](CCCNC(=N)N)C(=O)N[C@H](C(=O)N[C@@H](CCCCNC(=O)CCCCCCCCCCCCCCC(=O)O)C(=O)N[C@@H](CCC(N)=O)C(=O)N[C@@H](CCC(N)=O)C(=O)N[C@@H](CC(=O)O)C(=O)N[C@@H](Cc1ccccc1)C(=O)N[C@H](C(=O)N[C@@H](CC(N)=O)C(=O)N[C@@H](Cc1c[nH]c2ccccc12)C(=O)N[C@@H](CC(C)C)C(=O)N[C@@H](CC(C)C)C(=O)N[C@@H](C)C(=O)N[C@@H](CCC(N)=O)C(=O)N[C@@H](CCCNC(=N)N)C(=O)O)C(C)C)[C@@H](C)CC` [AT257] (H-GGTFISDYSIAMDRIK(C16 diacid)QQDFVNWLLAQR-OH; N-terminus assumed), the Emax at human GIP receptor [2] (setting [4]) stood at 4%; on human GIP receptor [3] (setting [5]), 5%.

Turning to `CC[C@H](C)[C@H](NC(=O)[C@H](Cc1ccccc1)NC(=O)[C@H](C)NC(=O)CNC(=O)[C@@H](N)CCC(=O)O)C(=O)N[C@@H](CO)C(=O)N[C@@H](CC(=O)O)C(=O)N[C@@H](Cc1ccc(O)cc1)C(=O)N[C@@H](C)C(=O)N[C@@H](C)C(=O)N[C@@H](C)C(=O)N[C@@H](CCSC)C(=O)N[C@@H](CC(=O)O)C(=O)N[C@@H](CCCCN)C(=O)N[C@H](C(=O)N[C@@H](CCCCNC(=O)CCCCCCCCCCCCCCC(=O)O)C(=O)N[C@@H](CCC(N)=O)C(=O)N[C@@H](CCC(N)=O)C(=O)N[C@@H](CC(=O)O)C(=O)N[C@@H](Cc1ccccc1)C(=O)N[C@H](C(=O)N[C@@H](C)C(=O)N[C@@H](Cc1c[nH]c2ccccc12)C(=O)N[C@@H](CC(C)C)C(=O)N[C@@H](CC(C)C)C(=O)N[C@@H](C)C(=O)N[C@@H](CCC(N)=O)C(=O)N[C@@H](CCCCN)C(N)=O)C(C)C)[C@@H](C)CC` [AT483] (H-EGAFISDYAAAMDKIK(C16 diacid)QQDFVAWLLAQK-NH2; N-terminus assumed), the Emax on human GIP receptor [2] (Table 1B, DiscoveRx, COS-7 cells, read-out: cAMP agonism, Emax) is 8%; on human GIP receptor [3] (HEK293, Table 1C, HEK-293 cells, read-out: cAMP agonism, % Efficacy), 0%.

Turning to `CC[C@H](C)[C@H](NC(=O)[C@H](CO)NC(=O)[C@H](Cc1ccc(O)cc1)NC(=O)[C@H](CC(=O)O)NC(=O)[C@H](CO)NC(=O)[C@@H](NC(=O)[C@H](Cc1ccccc1)NC(=O)[C@@H](NC(=O)CNC(=O)[C@@H](N)CCC(=O)O)[C@@H](C)O)[C@@H](C)CC)C(=O)N[C@@H](C)C(=O)N[C@@H](CCSC)C(=O)N[C@@H](CC(=O)O)C(=O)N[C@@H](CCCCN)C(=O)N[C@H](C(=O)N[C@@H](CCCCNC(=O)CCCCCCCCCCCCCCC(=O)O)C(=O)N[C@@H](CCC(N)=O)C(=O)N[C@@H](CCC(N)=O)C(=O)N[C@@H](CC(=O)O)C(=O)N[C@@H](Cc1ccccc1)C(=O)N[C@H](C(=O)N[C@@H](CC(N)=O)C(=O)N[C@@H](Cc1c[nH]c2ccccc12)C(=O)N[C@@H](CC(C)C)C(=O)N[C@@H](CC(C)C)C(=O)N[C@@H](C)C(=O)N[C@@H](CCC(N)=O)C(=O)N[C@@H](CCC(=O)O)C(N)=O)C(C)C)[C@@H](C)CC` [AT477] (H-EGTFISDYSIAMDKIK(C16 diacid)QQDFVNWLLAQE-NH2; N-terminus assumed), the “cAMP agonism, Emax” value at human GIP receptor [2] (Table 1B, DiscoveRx, COS-7 cells) is “No Agonism”. The Emax at human GIP receptor [3] (setting [5]) was 0%.

Consider `CC[C@H](C)[C@H](NC(=O)[C@H](CO)NC(=O)[C@H](Cc1ccc(O)cc1)NC(=O)[C@H](CC(=O)O)NC(=O)[C@H](CO)NC(=O)[C@@H](NC(=O)[C@H](Cc1ccccc1)NC(=O)[C@@H](N)[C@@H](C)O)[C@@H](C)CC)C(=O)N[C@@H](C)C(=O)N[C@@H](CC(C)C)C(=O)N[C@@H](CC(=O)O)C(=O)N[C@@H](CCCNC(=N)N)C(=O)N[C@H](C(=O)N[C@@H](CCCCNC(=O)CC[C@H](NC(=O)COCCOCCNC(=O)CCCCCCCCCCCCCCC(=O)O)C(=O)O)C(=O)N[C@@H](CCC(N)=O)C(=O)N[C@@H](CCC(N)=O)C(=O)N[C@@H](CC(=O)O)C(=O)N[C@@H](Cc1ccccc1)C(=O)N[C@H](C(=O)N[C@@H](CC(N)=O)C(=O)N[C@@H](Cc1c[nH]c2ccccc12)C(=O)N[C@@H](CC(C)C)C(=O)N[C@@H](CC(C)C)C(=O)N[C@@H](C)C(=O)N[C@@H](CCC(N)=O)C(=O)N[C@@H](CCCNC(=N)N)C(N)=O)C(C)C)[C@@H](C)CC` [AT234] (HELM PEPTIDE1{T.F.I.S.D.Y.S.I.A.L.D.R.I.K.Q.Q.D.F.V.N.W.L.L.A.Q.R.[am]}|PEPTIDE2{[O=C(O)CCCCCCCCCCCCCCC(=O)[*:2]].[O=C(COCCOCCN[*:1])[*:2]].[gGlu]}$PEPTIDE1,PEPTIDE2,14:R3-3:R2$$$V2.0; N-terminus assumed), for which the Emax at human GIP receptor [2] (setting [4]) came out at 26%; at human GIP receptor [3] (setting [5]), 0%.
